Results reported in patent publication US6221864A, “Prophylactic or therapeutic agent for diseases attributable to infection with helicobacters” (priority 1997, dated 2001).
In brackets after ≈: the same amount, converted by molar mass.

Key:
[1] = tested on: H. pylori ATCC 43504 Type strain; experiment: Bacterial eradication in H. pylori-infected Mongolian gerbils, alone or combined with famotidine, twice a day for 3 days; format: in vivo, Mongolian gerbil; settings: bid
Protocol: To a male 7-week-old Mongolian gerbil after fasting for about 20 hours, was inoculated orally a culture broth of H. pylori ATCC 43504 Type strain upon 24 hours of culture. After administration of the culture broth, the Mongolian gerbil was fasted and deprived of water for about 4 hours, after which a normal solid feed and drinking water were given to Mongolian gerbils infected with H. pylori. Starting from 6 weeks after infection, the compound of the present invention and famotidine which is a histamine H2 antagonist were administered alone or in combination twice a day for 3 days. The compound of the present invention was administered orally and famotidine was subcutaneously administered immediately before administration of the compound of the present invention. After completion of the drug administration, Mongolian gerbils were sacrificed at day 3. The stomach was excised and incised along greater curvature and its content was removed. The stomach was homogenized in 10 ml of phosphate buffer--physiological saline. […] The medium was incubated under CO2 and the colonies of H. pylori were counted. A case where colonies were not detected was evaluated as the case of bacterial eradication. As a control, phosphate buffer--physiological saline was used.

H. pylori = experiment: MIC given in Table 1 beside eradication in H. pylori-infected Mongolian gerbils; format: cell-based; settings: Helicobacter pylori
Protocol: Clinically isolated strains (18 strains) were cultured using 5% horse serum under microaerophilic conditions at 37° C. for 72 hours and diluted with Brucella broth to give a bacterial solution at about 10^6 cells/ml. The diluted bacterial solution was inoculated with a microplanter on an agar plate containing 2-fold dilution concentration series of test compound and cultured under 8% CO2 at 37° C. for 3 to 4 days. Thereafter, the minimum growth inhibitory concentration (MIC) was measured. MIC50 (minimum concentration to inhibit growth in 50% of the test strains) and MIC90 (minimum concentration to inhibit growth in 90% of the test strains) were calculated from the obtained values. To a male 7-week-old Mongolian gerbil after fasting for about 20 hours, was inoculated orally a culture broth of H. pylori ATCC 43504 Type strain upon 24 hours of culture. After administration of the culture broth, the Mongolian gerbil was fasted and deprived of water for about 4 hours, after which a normal solid feed and drinking water were given to Mongolian gerbils infected with H. pylori. Starting from 6 weeks after infection, the drug was orally administered twice a day for 7 days. […] The medium was incubated under CO2 and the colonies of H. pylori were counted. A case where colonies were not detected was evaluated as the case of bacterial eradication.

[2] = tested on: H. pylori ATCC 43504 Type strain; experiment: Bacterial eradication in H. pylori-infected Mongolian gerbils, drug orally twice a day for 7 days; format: in vivo, Mongolian gerbil; settings: bid, oral
Protocol: To a male 7-week-old Mongolian gerbil after fasting for about 20 hours, was inoculated orally a culture broth of H. pylori ATCC 43504 Type strain upon 24 hours of culture. After administration of the culture broth, the Mongolian gerbil was fasted and deprived of water for about 4 hours, after which a normal solid feed and drinking water were given to Mongolian gerbils infected with H. pylori. Starting from 6 weeks after infection, the drug was orally administered twice a day for 7 days. After completion of the drug administration, Mongolian gerbils were sacrificed at day 3. The stomach was excised and incised along greater curvature, and its content was removed. The stomach was homogenized in 10 ml of phosphate buffer--physiological saline in a homogenizer. The homogenate was appropriately diluted with the same buffer and 0.1 ml of sample was plated onto H. pylori selective medium. The medium was incubated under CO2 and the colonies of H. pylori were counted. A case where colonies were not detected was evaluated as the case of bacterial eradication.

[3] = tested on: H. pylori clinically isolated strains (18 strains); experiment: In vitro antibacterial activity against H. pylori clinically isolated strains (agar dilution MIC); format: cell-based; settings: Helicobacter pylori, 18 clinically isolated strains, agar plate, 8% CO2, 37° C., 3 to 4 days
Protocol: Clinically isolated strains (18 strains) were cultured using 5% horse serum under microaerophilic conditions at 37° C. for 72 hours and diluted with Brucella broth to give a bacterial solution at about 10^6 cells/ml. The diluted bacterial solution was inoculated with a microplanter on an agar plate containing 2-fold dilution concentration series of test compound and cultured under 8% CO2 at 37° C. for 3 to 4 days. Thereafter, the minimum growth inhibitory concentration (MIC) was measured. MIC50 (minimum concentration to inhibit growth in 50% of the test strains) and MIC90 (minimum concentration to inhibit growth in 90% of the test strains) were calculated from the obtained values.

Structure (SMILES)	Eradication rate ([1]; 100 mg/kg, subcutaneous) [%]	MIC (H. pylori) [µg/mL]	Eradication rate ([2]; 3.0 mg/kg) [%]	Eradication rate ([2]; 10.0 mg/kg) [%]	MIC50 ([3]; read-out: MIC50 (minimum concentration to inhibit growth in 50% of the test strains)) [µg/mL]	MIC90 ([3]; read-out: MIC90 (minimum concentration to inhibit growth in 90% of the test strains)) [µg/mL]	Eradication rate ([2]; 0.3 mg/kg) [%]	Eradication rate ([2]; 1.0 mg/kg) [%]	bacterial eradication of H. pylori (in words) [2]	visual and histopathological repair of inflammatory state [2]	Eradication rate ([1]; 0.3 mg/kg, oral) [%]	Eradication rate ([1]; 1.0 mg/kg, oral) [%]	Eradication rate ([1]; 3.0 mg/kg, oral) [%]	visual and histopathological repair of inflammatory state [1]	bacterial eradication effect when concurrently administered with famotidine (in words) ([1]; with famotidine subcutaneous)	bacterial eradication effect by single administration (in words) ([1]; without famotidine)
NC(N)=Nc1nc(CSCCC(N)=NS(N)(=O)=O)cs1 [famotidine, reference compound]	0	–	–	–	–	–	–	–	–	–	–	–	–	–	–	–
CC1(C)S[C@@H]2[C@H](NC(=O)[C@H](N)c3ccc(O)cc3)C(=O)N2[C@H]1C(=O)O [amoxicillin, reference compound]	–	0.025 (≈ 0.0684 µM)	0	100	–	–	–	–	–	–	–	–	–	–	–	–
COc1c(N2CCO[C@@H](CN(C)C)C2)c(F)cc2c(=O)c(C(=O)O)cn(C3CC3)c12 [Y-34867, (S)-1-cyclopropyl-1,4-dihydro-7-[2-(N,N-dimethylaminomethyl)morpholino]-6-fluoro-8-methoxy-4-oxoquinoline-3-carboxylic acid]	–	0.025 (≈ 0.0596 µM)	100	–	0.025 (≈ 0.0596 µM)	0.05 (≈ 0.119 µM)	0	80	evident bacterial eradication of H. pylori	promoted	0	60	100	promoted	the effect is enforced	superior bacterial eradication effect
